Measured values as given in patent US20260315467A1, “PHARMACEUTICAL COMBINATION OF FAK INHIBITOR AND EGFR-TKI, AND USE” (INXMED (NANJING) CO., LTD., priority 2022, published 2026).

Experiments:
[1] = test system: lung cancer KPL cells; experiment: White light microscope observation of lung cancer KPL cells after 48 h drug incubation (Examples 1-3); format: cell-based
[2] = test system: lung cancer cells HCC827; experiment: Apoptosis of HCC827 cells after FAK silencing combined with AZD9291 (Annexin V, flow cytometer); format: cell-based; conditions: FAK siRNA 50 nM, then 0.3 nM AZD9291, 48 hours
Method: In an in vitro assay, siRNA technology was used to reduce the expression level of FAK, which was combined with AZD9291 for 48 hours; a flow cytometer was used to detect the apoptosis in control and FAK-silenced cells.
(§1) Assay antibodies: Recombinant Alexa Fluor® 647 Anti-Calreticulin antibody (Abcam, ab196159), Annexin V apoptosis detection kit (Invitrogen, A35110).
HCC827 cells were transfected with control siRNA or FAK siRNA at a final concentration of 50 nM, respectively. After 24 hours of transfection, 0.3 nM AZD9291 was added and the cells were treated for 48 hours. The cells were stained using the Annexin V kit and detected using a flow cytometer. The values of early and late apoptosis of the cells were compared with those of the DMSO control group, and Graphpad 8.0 was used for graphing.

[3] = test system: colon cancer MC38 cell; experiment: In vivo anti-tumor efficacy in subcutaneous allograft tumor model of colon cancer MC38 cell in C57BL/6 mice; set-up: species or system mouse; conditions: PD-L1 antibody 5 mg/kg i.p. BIW
From the text: Mice: Female C57BL/6 mice aged 6-8 weeks were purchased from Shanghai Slack Laboratory Animal Co., Ltd. After the animals arrived, they were raised for acclimatization in the assay environment before the assay. The animals were raised in cages (5 animals per cage) with IVC (independent air supply system) in a SPF animal room. All the cages, padding and drinking water were sterilized before use. All the experimenters wore protective clothing and latex gloves when operating in the animal room. The animal information card for each cage indicated the number, sex, strain, receiving date, administration plan, assay number, group and assay start date of the animals in the cage. […]
Colorectal cancer cells MC38 (from Nanjing Kebai Biotechnology Co., Ltd., article number: CBP60825) were maintained and passaged by InxMed (Nanjing) Co., Ltd. The cells were cultured in monolayer in vitro, and the culture conditions were DMEM medium with 10% fetal bovine serum, 37° C. and 5% CO2 incubator. […] When the cells were in exponential growth period and the saturation reached 80% to 90%, the cells were collected, counted and inoculated. […]
The diameter of a tumor was measured with a vernier caliper 3 times a week. […]
Referring to the tumor volume on the first day after grouping, the tumor growth inhibition rate TGI (%) was calculated according to the following formula. […]

[4] = test system: Calreticulin; experiment: Calreticulin release and exposure in HCC827 cells after FAK silencing combined with AZD9291; format: cell-based; conditions: FAK siRNA 50 nM, then 0.3 nM AZD9291, 48 hours
Method: In an in vitro assay, siRNA technology was used to reduce the expression level of FAK, which was combined with AZD9291 for 48 hours; a flow cytometer was used to detect the expression of Calreticulin, the main target of ICD.
as §1
HCC827 cells were transfected with control siRNA or FAK siRNA at a final concentration of 50 nM, respectively. After 24 hours of transfection, 0.3 nM AZD9291 was added and the cells were treated for 48 hours. The Calreticulin antibody was used for fluorescent staining, and the staining results were analyzed by a flow cytometer.

[5] = Example 1, IN10018 10 μM, AZD9291 10 μM, or both
[6] = Example 2, IN10018 10 μM, Almonertinib 4.7 μM, or both
[7] = Example 3, IN10018 10 μM, Alflutinib 4.7 μM, or both

Structure (SMILES)	condition of cells under microscope [1, 5]	condition of cells under microscope [1, 6]	condition of cells under microscope [1, 7]	late apoptosis in the FAK silencing group compared with the control group [2]	TGI ([3]; day 14, AZD9291 20, IN10018 25 mg/kg p.o. QD)	Tumor volume on day 14 ([3]; day 14 after group administration, AZD9291 20, IN10018 25 mg/kg p.o. QD, mean ± standard error of the mean)	release and exposure of Calreticulin after FAK silencing [4]
COc1cc(C(=O)NC2CCN(C)CC2)c(F)cc1Nc1ncc(C(F)(F)F)c(Oc2cccc3c2C(=O)N(C)C3)n1 [IN10018]	better condition	better condition	better condition	–	–	–	–
C=CC(=O)Nc1cc(Nc2nccc(-c3cn(C)c4ccccc34)n2)c(OCC(F)(F)F)nc1N(C)CCN(C)C [Alflutinib]	–	–	poor condition	–	–	–	–
C=CC(=O)Nc1cc(Nc2nccc(-c3cn(C4CC4)c4ccccc34)n2)c(OC)cc1N(C)CCN(C)C [Almonertinib]	–	poor condition	–	–	–	–	–
C=CC(=O)Nc1cc(Nc2nccc(-c3cn(C)c4ccccc34)n2)c(OC)cc1N(C)CCN(C)C [AZD9291, Osimertinib]	poor condition	–	–	significantly enhanced	24.4%	1518.1±728.8 mm^3	significantly enhanced
